Measurements: ChEMBL document CHEMBL5137073, “Optimization and Mechanistic Investigations of Novel Allosteric Activators of PKG1α” (J Med Chem, 2022)
In brackets after ≈: the same amount, converted by molar mass.

Columns and labels:
[1] = target: T1, cGMP-dependent protein kinase 1 (Homo sapiens, UniProt Q13976); experiment: Activation of basal state recombinant PKG1alpha (unknown origin) using Glass-tide peptide substrate incubated for 30 mins followed by ATP addition and measured after 2 hr by ADP-GLO Max Assay
T1 sequence (Q13976 whole entry): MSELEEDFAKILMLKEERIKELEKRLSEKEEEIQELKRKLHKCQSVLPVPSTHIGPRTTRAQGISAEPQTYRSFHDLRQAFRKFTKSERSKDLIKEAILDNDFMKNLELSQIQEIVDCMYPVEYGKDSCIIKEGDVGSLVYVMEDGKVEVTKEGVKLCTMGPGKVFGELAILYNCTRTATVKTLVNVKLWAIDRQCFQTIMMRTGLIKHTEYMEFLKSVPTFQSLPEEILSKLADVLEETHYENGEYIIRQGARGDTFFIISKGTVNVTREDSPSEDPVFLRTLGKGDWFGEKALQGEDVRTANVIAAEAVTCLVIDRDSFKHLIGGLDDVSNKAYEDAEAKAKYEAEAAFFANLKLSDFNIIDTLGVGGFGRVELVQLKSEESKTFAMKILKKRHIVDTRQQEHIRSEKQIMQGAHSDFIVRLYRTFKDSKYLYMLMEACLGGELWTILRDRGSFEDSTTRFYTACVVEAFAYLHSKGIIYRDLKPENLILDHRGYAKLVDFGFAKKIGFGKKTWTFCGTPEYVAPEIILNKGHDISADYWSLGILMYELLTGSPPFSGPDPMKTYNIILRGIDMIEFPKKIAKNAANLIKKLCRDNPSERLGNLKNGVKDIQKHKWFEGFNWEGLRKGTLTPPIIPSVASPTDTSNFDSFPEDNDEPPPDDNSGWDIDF

[2] = target: T1, cGMP-dependent protein kinase 1; experiment: Activation of cGMP induced partially activated state recombinant PKG1alpha (unknown origin) using Glass-tide peptide substrate incubated for 30 mins followed by ATP addition and measured after 2 hr in presence of cGMP by ADP-GLO Max Assay
[3] = target: T1, cGMP-dependent protein kinase 1
Description: Activation of PKG1alpha in human HEK293 cells stably expressing VASP assessed as VSAP phosphorylation at Ser 239 incubated for 45 mins by HTRF assay

[4] = Apparent permeability in dog MDCK-II cells; type: ADME, cell-based, Canis lupus familiaris
[5] = Solubility of compound at pH 7; type: physicochemical; conditions: buffer
[6] = Oral bioavailability in Wistar Han male rat plasma at 5 mg/kg and measured upto 8 hrs by LC-MS/MS analysis; type: ADME, organism-based
[7] = Clearance in Wistar Han male rat plasma at 1 mg/kg, iv or 5 mg/kg, po and measured upto 8 hrs post dose by LC-MS/MS analysis; type: ADME, organism-based
[8] = Protein binding in Wistar Han male rat plasma at 1 mg/kg, iv or 5 mg/kg, po and measured upto 8 hrs post dose by LC-MS/MS analysis; type: ADME, organism-based; conditions: read-out: PPB
[9] = Solubility of compound in FaSSIF; type: physicochemical
[10] = Solubility of compound at pH 2; type: physicochemical; conditions: buffer
[11] = MRT in Wistar Han male rat plasma at 1 mg/kg, iv and measured upto 8 hrs post dose by LC-MS/MS analysis; type: ADME, organism-based
[12] = Volume of distribution in Wistar Han male rat plasma at 1 mg/kg, iv or 5 mg/kg, po and measured upto 8 hrs post dose by LC-MS/MS analysis; type: ADME, organism-based
[13] = MRT in Wistar Han male rat plasma at 0.05 mg/kg, iv and measured upto 8 hrs post dose by LC-MS/MS analysis; type: ADME, organism-based
[14] = Clearance in Wistar Han male rat plasma at 0.05 mg/kg, iv and measured upto 8 hrs post dose by LC-MS/MS analysis; type: ADME, organism-based
[15] = Volume of distribution in Wistar Han male rat plasma at 0.05 mg/kg, iv and measured upto 8 hrs post dose by LC-MS/MS analysis; type: ADME, organism-based
[16] = Protein binding in Wistar Han male rat plasma at 0.05 mg/kg, iv and measured upto 8 hrs post dose by LC-MS/MS analysis; type: ADME, organism-based; conditions: read-out: PPB (converted)

OC[C@@H](O[C@H]1CCCN(Cc2ncc[nH]2)[C@H]1c1ccccc1)c1cc(Cl)cc(Cl)c1
EC50 [1]: > 200 µM
EC50 [2]: 47 µM
EC50 [3]: > 164 µM
Papp [4]: 2 ×10⁻⁶ cm/s
solubility [5]: 120 µM (≈ 53.6 µg/mL)

O=C(O)c1ccc(CN2CCC[C@H](O[C@H](CO)c3cc(Cl)cc(Cl)c3)[C@@H]2c2ccccc2)cc1
EC50 [1]: 77 µM
solubility [5]: 85 µM (≈ 42.5 µg/mL)

Cc1cc(C(=O)O)ccc1C(=O)N1CCC[C@H](O[C@H](CO)c2cc(Cl)cc(Cl)c2)[C@@H]1c1ccccc1
EC50 [1]: > 200 µM
EC50 [2]: > 200 µM

O=C(O)C12CC(CN3CCC[C@H](O[C@H](CO)c4cc(Cl)cc(Cl)c4)[C@@H]3c3ccccc3)(C1)C2
EC50 [1]: > 200 µM
EC50 [2]: 12 µM

Cc1cc(C(=O)O)ccc1CN1CCC[C@@]2(C[C@@H](c3ccccc3)CO2)[C@@H]1c1ccccc1
EC50 [1]: > 200 µM
EC50 [2]: 43 µM

Cc1cc(C(=O)O)ccc1CN1C(=O)CC[C@H](OCc2cc(Cl)cc(Cl)c2)[C@@H]1c1ccccc1
EC50 [1]: > 200 µM
EC50 [2]: 169 µM

Cc1cc(C(=O)O)ccc1CN1CCC[C@H](O[C@H](CO)c2cc(Cl)cc(Cl)c2)[C@@H]1c1ccccc1
bioavailability [6]: 62%
clearance [7]: 2.5 mL/min/kg
fraction unbound at 8 h [8]: 0.001
solubility [9]: 36 µM (≈ 18.5 µg/mL)
solubility [10]: 196 µM (≈ 101 µg/mL)
Papp [4]: 22 ×10⁻⁶ cm/s
solubility [5]: 157 µM (≈ 80.8 µg/mL)
MRT [11]: 2.3 h
Vd [12]: 0.33 L/kg

O=C(O)c1ccc(CN2CCC[C@H](O[C@H](CO)c3cc(Cl)cc(Cl)c3)[C@@H]2c2ccccc2)c([N+](=O)[O-])c1
MRT [13]: 0.9 h
solubility [9]: 112 µM (≈ 61.1 µg/mL)
solubility [10]: 172 µM (≈ 93.8 µg/mL)
Papp [4]: 10 ×10⁻⁶ cm/s
clearance [14]: 8.1 mL/min/kg
Vd [15]: 0.45 L/kg
solubility [5]: 110 µM (≈ 60 µg/mL)
fraction unbound at 8 h [16]: < 0.001

Cc1cc(C(=O)O)ccc1CN1CCC[C@H](O[C@H](CO)c2ccnc(Cl)c2)[C@@H]1c1ccccc1
EC50 [1]: > 200 µM
EC50 [2]: 50 µM

Nc1cc(C(=O)O)ccc1CN1CCC[C@H](O[C@H](CO)c2cc(Cl)cc(Cl)c2)[C@@H]1c1ccccc1
MRT [13]: 1.9 h
solubility [9]: 137 µM (≈ 70.6 µg/mL)
solubility [10]: 126 µM (≈ 64.9 µg/mL)
Papp [4]: 21 ×10⁻⁶ cm/s
clearance [14]: 4.4 mL/min/kg
Vd [15]: 0.5 L/kg
solubility [5]: 78 µM (≈ 40.2 µg/mL)
fraction unbound at 8 h [16]: 0.002

Cc1cc(C(=O)O)ccc1CN1C(C)CC[C@H](O[C@H](CO)c2cc(Cl)cc(Cl)c2)[C@@H]1c1ccccc1 (stereo not given in full)
EC50 [1]: 130 µM
EC50 [2]: 36 µM

CC(=O)NS(=O)(=O)c1ccc(CN2CCC[C@H](O[C@H](CO)c3cc(Cl)cc(Cl)c3)[C@@H]2c2ccccc2)cc1
EC50 [1]: > 200 µM
EC50 [2]: 14 µM

Cc1cc(C(=O)O)ccc1CN1CC[C@H](OC(CO)c2cc(Cl)cc(Cl)c2)[C@@H]1c1ccccc1 (stereo not given in full)
EC50 [1]: 185 µM
EC50 [2]: 133 µM

Cc1cc(C(=O)O)ccc1CN1CCC[C@H](O[C@H](CO)c2cc(Cl)cc(Cl)c2)[C@@H]1c1ccc(F)cc1
EC50 [2]: 18 µM

Cc1cc(C(=O)O)ccc1CN1CCC[C@H](O[C@H](CO)c2cc(Cl)cc(Cl)c2)[C@@H]1c1cccc(F)c1
EC50 [2]: 12 µM

COc1cccc([C@@H](CO)O[C@H]2CCCN(Cc3ccc(C(=O)O)cc3C)[C@H]2c2ccccc2)c1
EC50 [1]: > 200 µM
EC50 [2]: 81 µM

Cc1cc(C(=O)O)ccc1CN1CCC[C@H](O[C@H](CO)c2ccccc2)[C@@H]1c1ccccc1
EC50 [1]: > 200 µM
EC50 [2]: 25 µM

Cc1cc(C(=O)O)ccc1C(C)N1CCC[C@H](O[C@H](CO)c2cc(Cl)cc(Cl)c2)[C@@H]1c1ccccc1 (stereo not given in full)
EC50 [2]: 18 µM

Cc1cc(C(=O)O)ccc1CN1CCC[C@H](O[C@H](CO)c2cc(Cl)cc(Cl)c2)[C@@H]1C1CCCCC1
EC50 [1]: > 200 µM
EC50 [2]: 65 µM

Cc1cc(C(=O)O)ccc1CN1CCC[C@H](OC(c2cc(Cl)cc(Cl)c2)C(C)(C)O)[C@@H]1c1ccccc1 (stereo not given in full)
EC50 [1]: 121 µM
EC50 [2]: 17 µM

Cc1cc(C(=O)O)ccc1CN1CCC[C@H](O[C@H](CO)c2cc(Cl)cc(Cl)c2)[C@@H]1c1cccnc1 (racemic)
EC50 [2]: 47 µM
